Test [1] concerns Erythropoietin secretion, Hep-3B cells. The test is described as follows: Cellular assay: EPO secretion in Hep-3B cells. It is filed as cell-based. To be noted: Homo sapiens, Hep3B, 100 μM compound, 24 hours, percent of EPO secretion relative to assay control compound 7-[(4-Chloro-phenyl)-(5-methyl-isoxazol-3-ylamino)-methyl]-quinolin-8-ol, read-out: Cellular % EPO Stimulation. Here is the method:
Hep-3B cells (ATCC, Manassas, Va.) were plated in 96-well plates at 20,000 cells per well in 100 μl of DMEM containing 10% fetal bovine serum, 1% non-essential amino acids, 50 IU/mL of penicillin and 50 μg/mL of streptomycin (all cell culture reagents from Invitrogen, Carlsbad, Calif.). Twenty-four hours after plating, compounds were added and incubated for an additional 24 hours. All compounds were tested with final compound concentrations at 100 μM. Fifty microliters of the supernatant was then transferred to a human Hypoxia assay kit (Meso-Scale Discovery, Gaithersburg, Md.). Erythropoietin in the supernatant was detected according to the manufacturer's instructions as follows. EPO detection plates were blocked with 3% BSA in PBS overnight and 50 μl of the supernatant was incubated at room temperature in an orbital shaker for 2 h. Twenty-five microliters of 0.5 μg/ml anti-EPO detection antibody was added for 2 hours at room temperature in an orbital shaker. After 3 washes in PBS, 150 μl of 1× read buffer is added and the plate is then read on the MSD SECTOR instrument. Data was analyzed by determining the percent of EPO secretion in the presence of 100 μM compound relative to an assay control compound, 7-[(4-Chloro-phenyl)-(5-methyl-isoxazol-3-ylamino)-methyl]-quinolin-8-ol.

For the next test, the target named is PHD2181-417 (Homo sapiens (Human), UniProt Q9GZT9). Kind of test: PHD enzymatic assay ([14C]-succinic acid production). To be noted: purified PHD2181-417, HIF-1α peptide substrate, 30 min pre-incubation; average of results. It is filed as biochemical. Here is the method: Expression and Purification of PHD2181-417
The human PHD2 expression construct containing amino acids 181-417 of GenBank Accession ID NM_022051 was cloned into a pBAD vector (Invitrogen), incorporating both an N-terminal histidine tag and a Smt3-tag, both of which are cleaved by Ulp1. Protein production was achieved by expression in BL21 cells grown in Terrific Broth containing 100 μg/ml ampicillin. Cell cultures were inoculated at 37° C. and grown to an OD600 of 0.8. Cultures were induced with 0.1% arabinose and grown overnight at 20° C. with continuous shaking at 225 rpm. Cells were then harvested by centrifugation and stored at −80° C. Cell pellets were suspended in Buffer A (50 mM Tris-HCl pH 7.2, 100 mM NaCl, 100 mM L-arginine, 1 mM TCEP, 0.05% (w/v) NP-40, 50 mM imidazole) followed by the addition of lysozyme and benzonase. Cells were lysed by sonication and the lysate was cleared by centrifugation (15,000 rpm, 90 min, 4° C.). The protein was purified by nickel affinity chromatography using a HisTrap Crude FF column (GE Healthcare). Samples were eluted in Buffer A with a 50-200 mM imidazole gradient. Cleavage of the Smt tag with Ulp1 protease was achieved via overnight incubation with dialyzing against Buffer A. The PHD2181-417 sample was then passed over a second HisTrap Crude FF column (GE Healthcare) to remove uncleaved protein. The flow-through was then dialyzed into 50 mM MES pH 6.0, 1 mM TCEP, 5 mM NaCl for ion exchange chromatography on a HiTrap SP Cation Exchange column (GE Healthcare). The PHD2181-417 protein was eluted with a 0-0.2 M NaCl gradient. Fractions were pooled for further purification by size exclusion chromatography over a Superdex 75 Size Exclusion Column (GE Healthcare). Final protein was concentrated to 4 mg/ml and dialyzed in 10 mM PIPES pH 7.0, 100 mM NaCl, 0.5 mM TCEP.
(10 μM, California Peptide Research Inc., Napa, Calif.), and [5-^14C]-2-oxoglutaric acid (50 mCi/mmol, Moravek Chemicals, Brea, Calif.) in reaction buffer (40 mM Tris-HCl, pH 7.5, 0.4 mg/ml catalase, 0.5 mM DTT, 1 mM ascorbate) for 10 minutes. Compounds were pre-incubated for 30 min before starting the reaction (all test compounds were dissolved at 10 mM in 100% DMSO (w/v) and were tested with final compound concentrations at 100 μM in 1% DMSO (w/v)). The reaction was stopped by addition of 50 μl of 70 mM H3PO4 and 50 μl of 500 mM NaH2PO4, pH 3.2. Detection of [^14C]-succinic acid was achieved by separating from [5-^14C]-2-oxoglutaric acid by incubating the reaction mixture with 100 μl of 0.16 M DNP prepared in 30% perchloric acid. Next, 50 μl of unlabeled 20 mM 2-oxoglutaric acid/20 mM succinic acid, serving as carrier for the radioactivity, was added to the mixture, and was allowed to proceed for 30 minutes at room temperature. The reaction was then incubated with 50 μl of 1 M 2-oxoglutaric acid for 30 additional minutes at room temperature to precipitate the excess DNP. The reaction was then centrifuged at 2800×g for 10 minutes at room temperature to separate [^14C]-succinic acid in the supernatant from the precipitated [^14C]-dinitrophenylhydrazone. Fractions of the supernatant (400 μI) were counted using a beta counter (Beckman Coulter, Fullerton, Calif.). Inhibition of PHD2181-417 activity was measured as a decrease in succinic acid production. The IC50 values were estimated by fitting the data to a three-parameter logistic function using GraphPad Prism, version 4.02 (Graph Pad Software, San Diego, Calif.).

Chain of PHD2181-417 (Q9GZT9 181-417): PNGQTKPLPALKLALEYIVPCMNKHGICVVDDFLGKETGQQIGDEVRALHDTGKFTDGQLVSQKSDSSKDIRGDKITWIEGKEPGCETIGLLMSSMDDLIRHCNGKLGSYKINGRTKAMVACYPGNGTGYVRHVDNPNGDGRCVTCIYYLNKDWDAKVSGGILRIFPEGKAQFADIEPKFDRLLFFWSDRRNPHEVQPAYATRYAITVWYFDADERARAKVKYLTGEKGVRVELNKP

As to `CCN(CC)c1nc(-n2cc(C(=O)O)cn2)nc2ccc(C3CCCCC3)cc12` [Example 27, 1-(6-Cyclohexyl-4-(diethylamino)quinazolin-2-yl)-1H-pyrazole-4-carboxylic acid], the activation at 100 µM in test [1] amounted to 45%. Moreover, at PHD2181-417, the “Enzyme pIC50” value is recorded as 7.3.

Turning to `O=C(O)c1cnn(-c2nc(Nc3ccccc3)c3cc(C4CCCCC4)ccc3n2)c1` [Example 28, 1-(6-Cyclohexyl-4-(phenylamino)quinazolin-2-yl)-1H-pyrazole-4-carboxylic acid], the activation at 100 µM in test [1] was 31%. The “Enzyme pIC50” value at PHD2181-417 came out at 7.3.

As to `O=C(O)c1cnn(-c2nc(NC3CC3)c3cc(C4CCCCC4)ccc3n2)c1` [Example 32, 1-(6-Cyclohexyl-4-(cyclopropylamino)quinazolin-2-yl)-1H-pyrazole-4-carboxylic acid], in test [1], the activation at 100 µM is 49%. On PHD2181-417, the “Enzyme pIC50” value stood at 6.7.

On to `O=C(O)c1cnn(-c2nc(N3CCOCC3)c3cc(C4CCCCC4)ccc3n2)c1` [Example 33, 1-(6-Cyclohexyl-4-morpholinoquinazolin-2-yl)-1H-pyrazole-4-carboxylic acid], for which the activation at 100 µM in test [1] was 36%. The “Enzyme pIC50” value at PHD2181-417 worked out at 6.8.

With `O=C(O)c1cnn(-c2nc(N3CCSCC3)c3cc(C4CCCCC4)ccc3n2)c1` [Example 34, 1-(6-Cyclohexyl-4-thiomorpholinoquinazolin-2-yl)-1H-pyrazole-4-carboxylic acid], in test [1], the activation at 100 µM worked out at 20%. The “Enzyme pIC50” value on PHD2181-417 was 6.9.

For `N#CNc1nc(-n2cc(C(=O)O)cn2)nc2ccc(C3CCCCC3)cc12` [Example 35, 1-(4-Cyanamido-6-cyclohexylquinazolin-2-yl)-1H-pyrazole-4-carboxylic acid], the activation at 100 µM in test [1] was found to be 67%. The “Enzyme pIC50” value on PHD2181-417 stood at 7.2.

For `O=C(O)c1cnn(-c2nc(N3CCCCCC3)c3cc(C4CCCCC4)ccc3n2)c1` [Example 37, 1-(4-(Azepan-1-yl)-6-cyclohexylquinazolin-2-yl)-1H-pyrazole-4-carboxylic acid], in test [1], the activation at 100 µM worked out at 17%. For the same compound, on PHD2181-417, the “Enzyme pIC50” value turned out to be 7.1.

Turning to `CN(C)c1nc(-n2cc(C(=O)O)cn2)nc2ccc(C3CCCCC3)cc12` [Example 38, 1-(6-Cyclohexyl-4-(dimethylamino)quinazolin-2-yl)-1H-pyrazole-4-carboxylic acid], in test [1], the activation at 100 µM is 61%. Besides, on PHD2181-417, the “Enzyme pIC50” value was determined as 7.2.

As for `CN(C)c1nc(-n2cc(C(=O)O)cn2)nc2ccc(-c3ccccc3)cc12` [Example 41, 1-(4-(Dimethylamino)-6-phenylquinazolin-2-yl)-1H-pyrazole-4-carboxylic acid], the activation at 100 µM in test [1] is 43%. Further, at PHD2181-417, the “Enzyme pIC50” value is 7.2.

Consider `CCN(C)c1nc(-n2cc(C(=O)O)cn2)nc2ccc(-c3ccccc3)cc12` [Example 42, 1-(4-(Ethyl(methyl)amino)-6-phenylquinazolin-2-yl)-1H-pyrazole-4-carboxylic acid], for which the activation at 100 µM in test [1] turned out to be 56%. In addition, the “Enzyme pIC50” value at PHD2181-417 stood at 7.3.

For the compound `O=C(O)c1cnn(-c2nc(N3CCCCC3)c3cc(-c4ccccc4)ccc3n2)c1` [Example 45, 1-(6-Phenyl-4-(piperidin-1-yl)quinazolin-2-yl)-1H-pyrazole-4-carboxylic acid], the activation at 100 µM in test [1] was 8%. The “Enzyme pIC50” value at PHD2181-417 came out at 7.2.

As to `CCN(CC)c1nc(-n2cc(C(=O)O)cn2)nc2ccc(-c3ccccc3)cc12` [Example 46, 1-(4-(Diethylamino)-6-phenylquinazolin-2-yl)-1H-pyrazole-4-carboxylic acid], the activation at 100 µM in test [1] is 26%. Moreover, the “Enzyme pIC50” value at PHD2181-417 is recorded as 7.4.

Take `O=C(O)c1cnn(-c2nc(N3CCSCC3)c3cc(-c4ccccc4)ccc3n2)c1` [Example 54, 1-(6-Phenyl-4-thiomorpholinoquinazolin-2-yl)-1H-pyrazole-4-carboxylic acid]: the activation at 100 µM in test [1] amounted to 25%. The “Enzyme pIC50” value at PHD2181-417 is given as 6.8.

For the compound `CCN(CC)c1nc(-n2cc(C(=O)O)cn2)nc2ccc(Oc3ccc(Cl)cc3)cc12` [Example 60, 1-(6-(4-Chlorophenoxy)-4-(diethylamino)quinazolin-2-yl)-1H-pyrazole-4-carboxylic acid], the activation at 100 µM in test [1] was found to be 22%. In addition, at PHD2181-417, the “Enzyme pIC50” value is 7.3.

`O=C(O)c1cnn(-c2nc(N3CCCC3)c3cc(Oc4ccc(Cl)cc4)ccc3n2)c1` [Example 61, 1-(6-(4-Chlorophenoxy)-4-(pyrrolidin-1-yl)quinazolin-2-yl)-1H-pyrazole-4-carboxylic acid]: in test [1], the activation at 100 µM was determined as 96%. For the same compound, the “Enzyme pIC50” value at PHD2181-417 amounted to 7.3.

Regarding `O=C(O)c1cnn(-c2nc(NC3CC3)c3cc(Oc4ccc(Cl)cc4)ccc3n2)c1` [Example 62, 1-(6-(4-Chlorophenoxy)-4-(cyclopropylamino)quinazolin-2-yl)-1H-pyrazole-4-carboxylic acid], the activation at 100 µM in test [1] came out at 32%. Moreover, the “Enzyme pIC50” value on PHD2181-417 is given as 7.0.

In the case of `O=C(O)c1cnn(-c2nc(N3CCCCC3)c3cc(Oc4ccc(Cl)cc4)ccc3n2)c1` [Example 63, 1-(6-(4-Chlorophenoxy)-4-(piperidin-1-yl)quinazolin-2-yl)-1H-pyrazole-4-carboxylic acid], the activation at 100 µM in test [1] is 39%. The “Enzyme pIC50” value on PHD2181-417 turned out to be 7.6.

For the compound `N#CC1CCN(c2nc(-n3cc(C(=O)O)cn3)nc3ccc(Oc4ccc(Cl)cc4)cc23)CC1` [Example 65, 1-(6-(4-Chlorophenoxy)-4-(4-cyanopiperidin-1-yl)quinazolin-2-yl)-1H-pyrazole-4-carboxylic acid], the activation at 100 µM in test [1] turned out to be 77%. Also, on PHD2181-417, the “Enzyme pIC50” value turned out to be 7.4.

For the compound `O=C(O)c1cnn(-c2nc(NC3CCOCC3)c3cc(Oc4ccc(Cl)cc4)ccc3n2)c1` [Example 68, 1-(6-(4-Chlorophenoxy)-4-((tetrahydro-2H-pyran-4-yl)amino)quinazolin-2-yl)-1H-pyrazole-4-carboxylic acid], the activation at 100 µM in test [1] is 40%. For the same compound, the “Enzyme pIC50” value on PHD2181-417 was 6.9.

As to `O=C(O)c1cnn(-c2nc(Nc3ccccc3)c3cc(Oc4ccc(Cl)cc4)ccc3n2)c1` [Example 69, 1-(6-(4-Chlorophenoxy)-4-(phenylamino)quinazolin-2-yl)-1H-pyrazole-4-carboxylic acid], the activation at 100 µM in test [1] is 23%. Also, at PHD2181-417, the “Enzyme pIC50” value turned out to be 7.7.

Regarding `CC(=O)NC1CCN(c2nc(-n3cc(C(=O)O)cn3)nc3ccc(Oc4ccc(Cl)cc4)cc23)CC1` [Example 70, 1-(4-(4-Acetamidopiperidin-1-yl)-6-(4-chlorophenoxy)quinazolin-2-yl)-1H-pyrazole-4-carboxylic acid], the activation at 100 µM in test [1] is 16%. On PHD2181-417, the “Enzyme pIC50” value was determined as 7.1.

The values are drawn from patent publication US10246442B2, “4-Aminoquinazolin compounds as prolyl hydroxylase inhibitors” (JANSSEN PHARMACEUTICA NV, priority 2011, dated 2019).
